Source: patent US11306078B2, “Piperidine CXCR7 receptor modulators” (IDORSIA PHARMACEUTICALS LTD., priority 2016, dated 2022)
pIC50: −log10 of the molar value.

Target: human chemokine receptor CXCR7 (Homo sapiens (Human), UniProt P25106)
Test: Tango CXCR7-bla U2OS beta-arrestin recruitment assay (beta-lactamase reporter, FRET), antagonism of CXCL12/SDF1-α;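 also: compounds preincubated 15 min before CXCL12 addition, then 22 h at 37 °C, FRET emission ratio read with CCF4-AM substrate after 2 h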
Type: cell-based
Details: antagonistic effect on CXCR7; Tango CXCR7-bla U2OS cells, CXCL12/SDF1-α at its EC80

Chain of human chemokine receptor CXCR7 (P25106 whole entry): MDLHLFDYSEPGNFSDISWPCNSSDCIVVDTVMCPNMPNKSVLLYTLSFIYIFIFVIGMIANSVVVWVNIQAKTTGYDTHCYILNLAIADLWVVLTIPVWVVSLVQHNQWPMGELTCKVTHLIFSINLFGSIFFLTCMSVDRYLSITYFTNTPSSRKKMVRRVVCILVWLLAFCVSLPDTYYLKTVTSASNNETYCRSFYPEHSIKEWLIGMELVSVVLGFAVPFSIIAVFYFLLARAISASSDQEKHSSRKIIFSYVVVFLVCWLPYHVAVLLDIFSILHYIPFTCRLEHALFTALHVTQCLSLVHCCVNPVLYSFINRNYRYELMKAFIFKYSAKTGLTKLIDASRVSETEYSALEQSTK

**Q.** C[C@@H](NC(=O)[C@@H]1CN(C2CCCC2)CC[C@H]1NC(=O)c1cc(-c2c(F)cc(F)cc2F)on1)C1CCC1 (single isomer, unassigned) [Example 1.138a, (3R*,4R*)-1-Cyclopentyl-4-{[5-(2,4,6-trifluoro-phenyl)-isoxazole-3-carbonyl]-amino}-piperidine-3-carboxylic acid ((R)-1-cyclobutyl-ethyl)-amide] was tested. Which pIC50 did it give?
**A.** 6.36

**Q.** How did the pIC50 turn out when C[C@@H](NC(=O)[C@@H]1CN(CC2CC2)CC[C@H]1NC(=O)c1cc(-c2c(F)cc(F)cc2F)on1)c1ccccn1 (relative stereo) [Example 1.123, (3R*,4R*)-1-Cyclopropylmethyl-4-{[5-(2,4,6-trifluoro-phenyl)-isoxazole-3-carbonyl]-amino}-piperidine-3-carboxylic acid ((R)-1-pyridin-2-yl-ethyl)-amide] was run?
**A.** 7.82

**Q.** With O=C(N[C@H]1CCN(CC2(C(F)F)CC2)C[C@@H]1C(=O)NC1(c2ncccn2)CC1)c1cc(-c2ccc(F)cc2F)on1 [Example 2.067] as the compound, how does the pIC50 read?
**A.** 7.74

**Q.** How did the pIC50 turn out when CN(CCc1ccccc1)C(=O)[C@@H]1CN(CC2CC2)CC[C@H]1NC(=O)c1cc(-c2ccc(F)cc2F)on1 [Example 2.006] was run?
**A.** 7.82

**Q.** C[C@@H]1CCC[C@H]1N1CC[C@@H](NC(=O)c2cc(-c3c(F)cc(F)cc3F)on2)[C@H](C(=O)N2CCC2)C1 (relative stereo) [Example 1.108, 5-(2,4,6-Trifluoro-phenyl)-isoxazole-3-carboxylic acid [(3R*,4R*)-3-(azetidine-1-carbonyl)-1-((1RS,2RS)-2-methyl-cyclopentyl)-piperidin-4-yl]-amide] was tested. Which pIC50 did it give?
**A.** 6.24

**Q.** COc1ccccc1CCNC(=O)[C@@H]1CN(C2CCCCC2)CC[C@H]1NC(=O)c1cc(-c2ccc(F)cc2F)on1 (racemic) [Example 1.057, rac-(3R*,4R*)-1-Cyclohexyl-4-{[5-(2,4-difluoro-phenyl)-isoxazole-3-carbonyl]-amino}-piperidine-3-carboxylic acid [2-(2-methoxy-phenyl)-ethyl]-amide] was tested. Which pIC50 did it give?
**A.** 9.00

**Q.** How did the pIC50 turn out when Cc1cccc(CCNC(=O)[C@@H]2CN(C3CCCCC3)CC[C@H]2NC(=O)c2cc(-c3ccc(F)cc3F)on2)c1 (racemic) [Example 1.066, rac-(3R*,4R*)-1-Cyclohexyl-4-{[5-(2,4-difluoro-phenyl)-isoxazole-3-carbonyl]-amino}-piperidine-3-carboxylic acid (2-m-tolyl-ethyl)-amide] was run?
**A.** 7.80

**Q.** How did the pIC50 turn out when CN(C)C(=O)[C@@H]1CN(C2CCCC2)CC[C@H]1NC(=O)c1cc(-c2ccc(F)cc2F)no1 (racemic) [Example 1.103, rac-(3R*,4R*)-1-Cyclopentyl-4-{[3-(2,4-difluoro-phenyl)-isoxazole-5-carbonyl]-amino}-piperidine-3-carboxylic acid dimethylamide] was run?
**A.** 6.56

**Q.** CC(C)(CO)NC(=O)[C@@H]1CN(C2CCCCC2)CC[C@H]1NC(=O)c1cc(-c2ccc(F)cc2F)on1 (racemic) [Example 1.088, rac-(3R*,4R*)-1-Cyclohexyl-4-{[5-(2,4-difluoro-phenyl)-isoxazole-3-carbonyl]-amino}-piperidine-3-carboxylic acid (2-hydroxy-1,1-dimethyl-ethyl)-amide] was tested. Which pIC50 did it give?
**A.** 6.61

**Q.** How did the pIC50 turn out when O=C(N[C@@H]1CCN(CC2CC2)C[C@H]1C(=O)NC1(c2ccccn2)CC1)c1cc(-c2ccc(F)cc2F)no1 (racemic) [Example 1.174, rac-(3R*,4R*)-1-Cyclopropylmethyl-4-{[3-(2,4-difluoro-phenyl)-isoxazole-5-carbonyl]-amino}-piperidine-3-carboxylic acid (1-pyridin-2-yl-cyclopropyl)-amide] was run?
**A.** 7.44

**Q.** O=C(N[C@@H]1CCN(CC2CC2)C[C@H]1C(=O)NC1(c2ncccn2)CC1)c1cc(-c2ccc(C(F)(F)F)cc2)on1 (racemic) [Example 1.192, rac-(3R*,4R*)-1-Cyclopropylmethyl-4-{[5-(4-trifluoromethyl-phenyl)-isoxazole-3-carbonyl]-amino}-piperidine-3-carboxylic acid (1-pyrimidin-2-yl-cyclopropyl)-amide] was tested. Which pIC50 did it give?
**A.** 6.41

**Q.** With CN(C)C(=O)[C@@H]1CN(CC2CCC2)CC[C@H]1NC(=O)c1cc(-c2ccc(F)cc2F)on1 [Example 2.038] as the compound, how does the pIC50 read?
**A.** 7.00

**Q.** O=C(N[C@@H]1CCN(CC2CC2)C[C@H]1C(=O)NC1(c2ccccn2)CC1)c1cc(-c2ccccc2F)on1 (racemic) [Example 3.013, rac-(3R*,4R*)-1-Cyclopropylmethyl-4-{[5-(2-fluoro-phenyl)-isoxazole-3-carbonyl]-amino}-piperidine-3-carboxylic acid (1-pyridin-2-yl-cyclopropyl)-amide] was tested. Which pIC50 did it give?
**A.** 6.82

**Q.** With “(3R*,4R*)-1-Cyclohexyl-4-{[3-(2,4-difluoro-phenyl)-isoxazole-5-carbonyl]-amino}-piperidine-3-carboxylic acid ((1S*,2R)-2-phenyl-cyclopropyl)-amide and (3R*,4R*)-1-Cyclohexyl-4-{[3-(2,4-difluoro-phenyl)-isoxazole-5-carbonyl]-amino}-piperidine-3-carboxylic acid ((1R*,2S*)-2-phenyl-cyclopropyl)-amide [Example 1.147]” as the compound, how does the pIC50 read?
**A.** 6.35

**Q.** With C[C@H]([C@@H](C)O)N1CC[C@@H](NC(=O)c2cc(-c3ccc(F)cc3F)on2)[C@H](C(=O)N(C)CCc2ccccc2)C1 [Example 2.051] as the compound, how does the pIC50 read?
**A.** 7.38

**Q.** C[C@@H](NC(=O)[C@@H]1CN(C2CCCC2)CC[C@H]1NC(=O)c1noc(-c2ccc(F)cc2F)n1)c1ccccn1 (relative stereo) [Example 1.157, (3R*,4R*)-1-Cyclopentyl-4-{[5-(2,4-difluoro-phenyl)-[1,2,4]oxadiazole-3-carbonyl]-amino}-piperidine-3-carboxylic acid ((R)-1-pyridin-2-yl-ethyl)-amide] was tested. Which pIC50 did it give?
**A.** 6.88

**Q.** C[C@@H](NC(=O)[C@@H]1CN(C2CCCCC2)CC[C@H]1NC(=O)c1cn(-c2ccc(F)cc2F)nn1)c1ccccn1 (relative stereo) [Example 1.117, (3R*,4R*)-1-Cyclohexyl-4-{[1-(2,4-difluoro-phenyl)-1H-[1,2,3]triazole-4-carbonyl]-amino}-piperidine-3-carboxylic acid ((R)-1-pyridin-2-yl-ethyl)-amide] was tested. Which pIC50 did it give?
**A.** 7.17

**Q.** How did the pIC50 turn out when CC(C)(CNC(=O)[C@@H]1CN(C2CCC2)CC[C@H]1NC(=O)c1cc(-c2ccc(F)cc2F)on1)c1ccccn1 [Example 4.087] was run?
**A.** 6.47

**Q.** O=C(N[C@H]1CCN(C2CCC2)C[C@@H]1C(=O)NC1(c2ncccn2)CC1)c1ncc(-c2ccc(F)cc2F)o1 [Example 2.097] was tested. Which pIC50 did it give?
**A.** 6.19

**Q.** How did the pIC50 turn out when C[C@H]([C@@H](C)O)N1CC[C@@H](NC(=O)c2cc(-c3ccc(F)cc3F)on2)[C@H](C(=O)N(C)C)C1 [Example 2.049] was run?
**A.** 6.15

**Q.** O=C(N[C@@H]1CCN(CC2CC2)C[C@H]1C(=O)NCCc1ccccn1)c1cc(-c2ccc(F)cc2F)on1 [Example 2.08] was tested. Which pIC50 did it give?
**A.** 6.51

**Q.** How did the pIC50 turn out when O=C(N[C@@H]1CCN(CC2CC2)C[C@H]1C(=O)NC1(c2ccccn2)CC1)c1nnc(-c2ccc(F)cc2F)o1 (racemic) [Example 3.016, rac-(3R*,4R*)-1-Cyclopropylmethyl-4-{[5-(2,4-difluoro-phenyl)-[1,3,4]oxadiazole-2-carbonyl]-amino}-piperidine-3-carboxylic acid (1-pyridin-2-yl-cyclopropyl)-amide] was run?
**A.** 6.98

**Q.** With C[C@H]([C@@H](C)O)N1CC[C@@H](NC(=O)c2cc(-c3ccc(F)cc3F)on2)[C@H](C(=O)N[C@H](C)c2ccccn2)C1 [Example 2.054] as the compound, how does the pIC50 read?
**A.** 6.86

**Q.** How did the pIC50 turn out when C[C@@H](NC(=O)[C@@H]1CN(C2CCCC2)CC[C@H]1NC(=O)c1cn(-c2ccc(F)cc2F)nn1)c1ccccn1 (relative stereo) [Example 1.118, (3R*,4R*)-1-Cyclopentyl-4-{[1-(2,4-difluoro-phenyl)-1H-[1,2,3]triazole-4-carbonyl]-amino}-piperidine-3-carboxylic acid ((R)-1-pyridin-2-yl-ethyl)-amide] was run?
**A.** 7.44

**Q.** O=C(N[C@@H]1CCN(C2CCCCC2)C[C@H]1C(=O)NC[C@H](O)c1ccccc1)c1cc(-c2ccc(F)cc2F)on1 (relative stereo) [Example 1.072, (3R*,4R*)-1-Cyclohexyl-4-{[5-(2,4-difluoro-phenyl)-isoxazole-3-carbonyl]-amino}-piperidine-3-carboxylic acid ((R)-2-hydroxy-2-phenyl-ethyl)-amide] was tested. Which pIC50 did it give?
**A.** 7.49

**Q.** How did the pIC50 turn out when O=C(N[C@H]1CCN(CC2CC2)C[C@@H]1C(=O)NC1(c2ncccn2)CC1)c1cc(-c2ccc(F)c(F)c2)on1 [Example 7.013, (3S,4S)-1-Cyclopropylmethyl-4-{[5-(3,4-difluoro-phenyl)-isoxazole-3-carbonyl]-amino}-piperidine-3-carboxylic acid (1-pyrimidin-2-yl-cyclopropyl)-amide] was run?
**A.** 6.60

**Q.** C[C@@H](NC(=O)[C@@H]1CN(C2CCCCC2)CC[C@H]1NC(=O)c1cc(-c2ccc(F)cc2F)no1)c1ccccn1 (relative stereo) [Example 1.125, (3R*,4R*)-1-Cyclohexyl-4-{[3-(2,4-difluoro-phenyl)-isoxazole-5-carbonyl]-amino}-piperidine-3-carboxylic acid ((R)-1-pyridin-2-yl-ethyl)-amide] was tested. Which pIC50 did it give?
**A.** 7.09

**Q.** O=C(N[C@@H]1CCN(C2CCCC2)C[C@H]1C(=O)NC1(c2cccc[n+]2[O-])CC1)c1cc(-c2ccc(F)cc2F)on1 [Example 2.062a] was tested. Which pIC50 did it give?
**A.** 6.53

**Q.** How did the pIC50 turn out when C[C@@H]1CCC[C@H]1N1CC[C@@H](NC(=O)c2cc(-c3ccc(F)cc3F)no2)[C@H](C(=O)NC2(c3ccccn3)CC2)C1 (relative stereo) [Example 1.175, (3R*,4R*)-4-{[3-(2,4-Difluoro-phenyl)-isoxazole-5-carbonyl]-amino}-1-((1RS,2RS)-2-Methyl-cyclopentyl)-piperidine-3-carboxylic acid (1-pyridin-2-yl-cyclopropyl)-amide] was run?
**A.** 6.17

**Q.** How did the pIC50 turn out when COc1ccc(-c2cc(C(=O)N[C@@H]3CCN(CC4CC4)C[C@H]3C(=O)NC3(c4ncccn4)CC3)no2)c(F)c1 (racemic) [Example 1.195, rac-(3R*,4R*)-1-Cyclopropylmethyl-4-{[5-(2-fluoro-4-methoxy-phenyl)-isoxazole-3-carbonyl]-amino}-piperidine-3-carboxylic acid (1-pyrimidin-2-yl-cyclopropyl)-amide] was run?
**A.** 6.12
